# Biological target: T1, WT-TTR (Homo sapiens, UniProt P02766)
# T1 construct: TTR is a 127-residue β-sheet rich homotetramer; made in house; host or cells: Escherichia coli
# Experiment: Acid-mediated (pH 4.4) TTR fibril formation assay (turbidity)
# Format: biochemical
# Settings: inhibitor 7.2 μM, tetrameric TTR 3.6 μM, pH 4.4, 72 h
# Procedure: The inhibitory activity of the oxime ethers (7.2 μM) against acid-mediated (pH 4.4) TTR (3.6 μM) amyloid formation is summarized in FIG. 10.
# Wild type TTR was purified from an Escherichia coli expression system as described previously (Lashuel, H. A.; et al. Biochemistry 1999, 38, 13560-13573). Disposable cuvettes (Fisher #14 385 938) were charged with 495 μL of a 0.4 mg/mL stock of TTR (7.2 μM) in 10 mM phosphate (pH 7.2), 100 mM KCl, 1 mM EDTA, and 0.2% NaN3. 5 μL of the inhibitors in DMSO (1.44 mM) were added to the TTR solutions and the samples were incubated for 30 min at 37° C. The pH was then lowered to 4.4 by addition of 0.5 mL of 200 mM acetate buffer (pH 4.2, 100 mM KCI, 1 mM EDTA, 0.2% NaN3) to each cuvette. The cuvettes were left undisturbed for 72 h at 37° C., then vortexed to evenly distribute any precipitate throughout the sample. The turbidity was measured on a Hewlett Packard model 8453 UV-Vis Spectrophotometer at 350 and 400, or 500 nm. All samples were performed in duplicate or triplicate and results reported are representative examples of at least three analyses.
# FIG. 4 is a table showing the activities of the 96 bisarylhydrazones that were tested for inhibition of fibril formation. Bisarylhydrazone activity (7.2 μM) against WT-TTR (3.6 μM) amyloid fibril formation at pH 4.4 (72 h). […]
structure (smiles),measurement,value
"Oc1cc(Cl)cc(Cl)c1 [3,5-Dichlorophenol]",inhibition at 7.2 µM,86%

# — patent publication US20090054629A1, “Inhibitors of Transthyretin Amyloid Fibril Formation” (THE SCRIPPS RESEARCH INSTITUTE, priority 2005, published 2009)
